Experimental findings from ChEMBL document CHEMBL4706685 (J Med Chem, 2021) are described below.

The nature of series [1]: Lipophilicity, logP of compound by HPLC analysis. It is filed as physicochemical.
A short description of series [2]: Drug excretion in female Sprague-Dawley rat urine/feces assessed as drug recovery at […], po administered as single dose using [14C]-EC5026 measured through 168 hrs postdose. The conditions noted are these: in vivo.
The next series deals with CYP2B6. Description: Induction of CYP2B6 mRNA expression in human hepatocytes up to 30 uM relative to positive control. It is filed as ADME, cell-based, Hepatocyte. The conditions noted are these: read-out: Activity.
The subject of a further series is CYP3A4. Description: Induction of CYP3A4 mRNA expression in human hepatocytes up to 30 uM relative to positive control. Type of series: ADME, cell-based, Hepatocyte. The settings on record: read-out: Activity.
For another series, the system named is CYP1A2. Description: Induction of CYP1A2 mRNA expression in human hepatocytes up to 30 uM relative to positive control. It is filed as ADME, cell-based, Hepatocyte. The settings on record: read-out: Activity.
Series [3] is described as follows: Terminal half life in human at 8 to 24 mg. Type of series: ADME. The settings on record: dose 8-24 mg, read-out: beta t1/2 (converted).
Series [4] is described as follows: Drug excretion in male Sprague-Dawley rat urine/feces assessed as drug recovery at 3 mg/kg, po administered as single dose using [14C]-EC5026 measured through 168 hrs postdose. The settings on record: in vivo.
The nature of series [5]: Solubility in 0.1M sodium phosphate buffer at pH 7.4. Type of series: physicochemical.

Converted amounts (≈) assume the structure as drawn. Where only a bound is given, the exact number is not on record here.

As a reminder, the logP is a log measure of how a compound divides between an organic and an aqueous phase. With `O=C(Nc1ccc(OC(F)(F)F)c(F)c1)NC1CCN(C(=O)C2CC2)CC1`, the logP in series [1] (read-out: logP) was 4.2.
As to `CC[C@H](C)C(=O)N1CCC(NC(=O)Nc2ccc(OC(F)(F)F)c(F)c2)CC1`, the Drug recovery in series [2] and in series [4] was 96.5% in each case. The Emax in the series on CYP2B6, with CYP3A4 and in the series on CYP1A2 was less than 20% throughout. Besides, in series [1] (read-out: logP), the logP was found to be 6. In series [3], the half-life was 42 h.
In general, solubility refers to the dissolved amount per volume that the medium holds. A lower solubility goes with little dissolved substance. In series [5], `CC[C@H](C)C(=O)N1CCC(CC(=O)Nc2ccc(OC(F)(F)F)c(F)c2)CC1` returned a solubility of 404.41 µg/mL (≈ 1000 µM). In series [1], this compound yielded a logP of 3.2.
